Laboratory results published in the SangsterLogP compilation.

Assay: method code SF-AS, from DOI: 10.1246/bcsj.68.782
Conditions: pH 2.0

| Compound | logD |
| --- | --- |
| Cc1cc(C(=O)O)ccc1[N+](=O)[O-] | 2.42 |
| O=C(O)c1ccc(Cl)cc1Cl | 2.76 |
| COc1cc(C(=O)O)cc(OC)c1OC | 1.66 |
| Cc1ccc([N+](=O)[O-])c(C(=O)O)c1 | 1.63 |
| O=C(O)c1cccc(F)c1F | 1.88 |
| O=C(O)c1ccc(Cl)c([N+](=O)[O-])c1 | 2.53 |
| COc1c([N+](=O)[O-])cc(C(=O)O)cc1[N+](=O)[O-] | 1.73 |
| COc1cc(C(=O)O)cc(OC)c1O | 1.13 |
| O=C(O)c1cc(O)c(Br)c(O)c1 | 1.75 |
| O=C(O)c1cc(Cl)cc(Cl)c1 | 3.29 |
| Cc1c(C(=O)O)cccc1[N+](=O)[O-] | 2.16 |
| Cc1ccc(C(=O)O)c(O)c1 | 2.8 |
| Cc1ccc(C(=O)O)cc1[N+](=O)[O-] | 2.35 |
